From publication PMC6995558, “Biological Evaluation, Molecular Docking, and SAR Studies of Novel 2-(2,4-Dihydroxyphenyl)-1H- Benzimidazole Analogues” (Biomolecules, 2019)

Assays:
[1] = target: T1, Acetylcholinesterase (AChE, E.C. 3.1.1.7, from human erythrocytes) (Homo sapiens, UniProt P22303); assay: biochemical; type: biochemical; details: for Selectivity for AChE: IC50(BuChE)/IC50(AChE); for IC50: means ± SD of three independent experiments
T1 construct: Acetylcholinesterase (AChE, E.C. 3.1.1.7, from human erythrocytes); purchased Sigma-Aldrich (Steinheim, Germany); host or cells: human erythrocytes (natural source)
Description: (§1) The details were described previously.
(§2) Their potency was determined using the modified Ellman’s method and expressed as the half of maximal inhibitory concentration, IC50 [34].

[2] = target: T2, butyrylcholinesterase (BuChE, E.C. 3.1.1.8, from equine serum) (Equus caballus, UniProt P81908); assay: biochemical; details: means ± SD of three experiments; read-out: BuChE IC50
T2 construct: butyrylcholinesterase (BuChE, E.C. 3.1.1.8, from equine serum); purchased Sigma-Aldrich (Steinheim, Germany); host or cells: equine serum (natural source)
Description: as §1, §2

[3] = target: T3, AChE (Homo sapiens, UniProt P22303); assay: Kinetic characterization of AChE inhibition (Lineweaver–Burk); type: biochemical; details: for υmax: AChE; for Type of AChE inhibition: Lineweaver–Burk plots analysis
T3 construct: Acetylcholinesterase (AChE, E.C. 3.1.1.7, from human erythrocytes); purchased Sigma-Aldrich (Steinheim, Germany); host or cells: human erythrocytes (natural source)
Description: The kinetic analysis was evaluated according to the Ellman’s method. Plots of 1/velocity versus the reciprocal substrate concentration were constructed at different final concentrations of the ATC iodide in the range of 100–10 µM. […] The tested medium contained DTNB solution (0.4 mg/mL), AChE solution (2 U/mL) or BuChE solution (4 U/mL), solution of the examined compound, and different concentrations of the ATC iodide substrate solution. Absorbance was detected at 412 nm at room temperature after 7 min. The obtained data were calculated and presented on the Lineweaver–Burk plot. The determined the Michaelis-Menten constant (KM) and the maximum velocity of the enzyme (υmax) values were used to define the type of enzyme inhibition.
The mechanism of AChE inhibition was investigated for inhibitors 1 and 5 as the most valuable compounds. […]

[4] = target: T4, BuChE (Equus caballus, UniProt P81908); assay: Kinetic characterization of BuChE inhibition (Lineweaver–Burk); type: biochemical; details: for υmax: BuChE; for Mechanism of BuChE inhibition: Lineweaver–Burk plots analysis
T4 construct: butyrylcholinesterase (BuChE, E.C. 3.1.1.8, from equine serum); purchased Sigma-Aldrich (Steinheim, Germany); host or cells: equine serum (natural source)
Description: The kinetic analysis was evaluated according to the Ellman’s method. Plots of 1/velocity versus the reciprocal substrate concentration were constructed at different final concentrations of the ATC iodide in the range of 100–10 µM. The studies were carried out using the final concentrations of 1 inhibitor: (AChE: 0.25, 1.0 µM; BuChE: 0.25, 1.2 µM) and 5 (AChE: 0.1, 1.0 µM; BuChE: 0.25, 0.55 µM) and without it. The tested medium contained DTNB solution (0.4 mg/mL), AChE solution (2 U/mL) or BuChE solution (4 U/mL), solution of the examined compound, and different concentrations of the ATC iodide substrate solution. Absorbance was detected at 412 nm at room temperature after 7 min. The obtained data were calculated and presented on the Lineweaver–Burk plot. The determined the Michaelis-Menten constant (KM) and the maximum velocity of the enzyme (υmax) values were used to define the type of enzyme inhibition.
The mechanism of AChE inhibition was investigated for inhibitors 1 and 5 as the most valuable compounds. The Lineweaver–Burk plots present 1/velocity versus 1/substrate concentrations in the range of 100–10 µM for compounds 5 (0.1, 1.0 µM) and 1 (0.25, 1.0 µM) and without inhibitors (0 µM) (Figure 2).

[5] = target: T5, Amyloid β-peptide (1–42) (Aβ42) (Homo sapiens, UniProt P05067); assay: biochemical; details: ThT fluorescence, 24 h at 37 °C; means ± SD of three experiments; read-out: IC50(Aβ(1–42)) self-induced aggregation
T5 construct: Amyloid β-peptide, (1–42) (Aβ42), was purchased from Aldrich; purchased Aldrich
Description: Amyloid β-peptide, (1–42) (Aβ42), was purchased from Aldrich. Aβ42 was diluted in the phosphate buffer (pH 8.0) to obtain a 125.8 µM solution. The compounds under study were first dissolved in a small amount of methanol, and then further diluted in the phosphate buffer to the final concentration of 5–160 μM. To study the Aβ42 aggregation inhibition, the fluorescence emission of thioflavin T (ThT) was followed with curcumin as the reference compound [35, 36]. At first, the Aβ42 (10 μL) samples and the tested compounds (10 μL) were diluted with the phosphate buffer (60 μL) and then they were incubated for 24 h at 37 °C without stirring. As for the control, a sample of the peptide was incubated without the inhibitor. The tests were carried out in black, flat-bottom, 96-well plates. Then 20 µL of 2.5 µM ThT in 50 mM glycine–NaOH (pH 8.5) was added and incubated for 5 min. Fluorescence was monitored with the excitation at 446 nm and the emission at 490 nm. A time scan of fluorescence was performed and the intensity values reached the plateau (300 s). […]. The reported values were obtained as the mean ± SD of triplicate of three independent experiments.
Nowadays, the amyloid hypothesis has become the dominating paradigm for understanding AD [44]. Aβ(1–42) is the most amyloidogenic Aβ fragment found in the AD plaques. […].

[6] = In vitro antioxidant activity assay (DPPH radical scavenging); details: DPPH 100 μM in methanol, 37 °C, 30 min; means ± SD of three experiments; read-out: IC50(DPPH) radical scavenging effect
Description: Antioxidant activity of each compound and standards (rutin) was assessed based on the radical scavenging effect of stable DPPH free radical. An amount of 10 μL of each tested compound or standard series of different concentrations (from 0.0 to 100 µM) was added to 9 mL of methanol solution of 2,2-diphenyl-1-picrylhydrazyl (DPPH) (100 μM). After incubation at 37 °C for 30 min, decrease in the absorbance of each solution was measured at 520 nm. The absorbance of the blank sample containing the same amount of DMSO and DPPH solution was also prepared and measured. All experiments were conducted in triplicate. The scavenging potential was compared with a solvent control (0% radical scavenging) and the standard compound. Radical scavenging activity (%AA) was calculated by the following formula: (%AA) = [(A0 − A1)/A0] × 100%(3) in which (A0) is the absorbance of the blank sample and (A1) is the absorbance of the tested compound (t = 30 min).
Reactive oxygen species are a causal factor in the process of aging and the cumulative damage has been associated with AD [45]. In this study, the DPPH radical scavenging activity of the newly synthesized compounds was estimated using the Brand-Williams method.

[7] = RP-18 HPLC chromatography lipophilicity estimation; type: physicochemical; details: for −S (slope): methanol/acetate buffer pH 4.0; for log kw (intercept): methanol/acetate buffer pH 4.0, extrapolated to pure water
Description: The Eurosil Bioselect C18 (5 μm, 300 × 4.6 mm) column was used as the stationary phase. The mobile phase consisted of different volume mixtures of methanol and 20 mM acetate buffer as the aqueous phase to give pH 4.0. The organic modifier concentration ranged from 0.30 to 0.75, depending on the structure of the compound at 0.05 (0.1) intervals. The flow rate was 0.5 cm^3·min^−1 at room temperature. Measurements were made at 292 nm. The retention time of an unretained solute (t0) was determined by the injection of a small amount of acetone dissolved in water. […] This is described by the Soczewiński–Wachtmeister dependence: log k = log kw + S (% organic modifier)(1) in which log kw is the retention factor of a solute with pure water as the mobile phase (intercept) and S is the regression curve (slope). The log k values were calculated as log k = log (tR − t0)/t0, where tR is the retention time of a solute and t0 is the retention time of an unretained solute.
To find the structure–activity relationships, some quantities of the compounds were estimated (Table 5). They included the lipophilicity parameter log kw obtained by RP-HPLC and calculated in silico log P, the topological polar surface area (tPSA), and the molar refractivity (MR) (Table 5). The log kw and S parameters obtained by the extrapolation technique are commonly used as lipophilicity descriptors.

[8] = inhibitor concentration 0.25 µM

T1 sequence (P22303 32-617 isoform P22303-2 limits assumed): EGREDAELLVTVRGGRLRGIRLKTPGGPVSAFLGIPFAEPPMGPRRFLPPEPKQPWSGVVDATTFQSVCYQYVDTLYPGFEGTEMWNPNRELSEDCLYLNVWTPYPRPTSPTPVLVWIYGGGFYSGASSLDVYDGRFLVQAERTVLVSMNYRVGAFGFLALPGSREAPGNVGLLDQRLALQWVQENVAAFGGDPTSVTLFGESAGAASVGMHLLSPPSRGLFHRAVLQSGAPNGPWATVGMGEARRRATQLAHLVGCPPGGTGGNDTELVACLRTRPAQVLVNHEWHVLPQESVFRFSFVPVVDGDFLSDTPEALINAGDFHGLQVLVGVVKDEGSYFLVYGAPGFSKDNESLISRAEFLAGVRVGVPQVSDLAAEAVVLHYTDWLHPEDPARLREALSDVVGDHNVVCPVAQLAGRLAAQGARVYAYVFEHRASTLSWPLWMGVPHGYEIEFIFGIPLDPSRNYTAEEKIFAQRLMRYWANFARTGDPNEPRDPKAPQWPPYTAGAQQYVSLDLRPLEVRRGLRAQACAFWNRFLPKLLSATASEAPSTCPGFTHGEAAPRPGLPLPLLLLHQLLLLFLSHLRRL
T3 sequence (P22303 32-617 isoform P22303-2 limits assumed): as above
T4 sequence (P81908 whole entry): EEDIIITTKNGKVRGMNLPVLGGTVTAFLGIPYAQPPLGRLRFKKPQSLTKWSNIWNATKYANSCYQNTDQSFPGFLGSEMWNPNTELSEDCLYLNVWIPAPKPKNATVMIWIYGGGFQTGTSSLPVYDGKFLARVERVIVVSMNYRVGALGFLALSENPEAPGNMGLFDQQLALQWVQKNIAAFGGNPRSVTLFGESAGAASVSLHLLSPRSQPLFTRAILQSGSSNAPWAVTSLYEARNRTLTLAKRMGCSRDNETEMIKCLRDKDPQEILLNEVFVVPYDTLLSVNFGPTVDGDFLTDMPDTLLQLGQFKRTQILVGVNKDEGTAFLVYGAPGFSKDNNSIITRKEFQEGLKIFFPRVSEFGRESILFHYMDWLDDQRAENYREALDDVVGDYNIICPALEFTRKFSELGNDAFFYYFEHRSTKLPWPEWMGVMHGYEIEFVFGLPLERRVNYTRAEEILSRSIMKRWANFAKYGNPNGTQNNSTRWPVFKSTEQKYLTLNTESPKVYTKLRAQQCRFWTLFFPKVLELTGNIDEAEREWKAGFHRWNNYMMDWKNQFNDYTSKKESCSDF
T5 sequence (P05067 672-713 limits assumed): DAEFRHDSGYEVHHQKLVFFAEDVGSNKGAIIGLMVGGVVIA
T2 sequence (P81908 whole entry): as the sequence (P81908 whole entry) above

Row | Structure (SMILES) | Activity against AChE (in words) [1] | Selectivity for AChE [1] | IC50 [1] [nM] | IC50 [2] [nM] | υmax ([3]; inhibitor concentration 0.25 μM) [A min^−1] | υmax ([3]; inhibitor concentration 1.0 μM) [A min^−1] | Type of AChE inhibition [3] | υmax [4, 8] [A min^−1] | υmax ([4]; inhibitor concentration 1.2 µM) [A min^−1] | Mechanism of BuChE inhibition [4] | IC50 [5] [µM] | IC50 [6] [nM] | −S (slope) [7] | log kw (intercept) [7] | υmax ([3]; inhibitor concentration 0.15 μM) [A min^−1] | υmax ([4]; inhibitor concentration 0.55 µM) [A min^−1]
1 | Oc1cc(O)c(-c2nc3ccccc3[nH]2)cc1Cl [Compound 1, 4-(1H-benzimidazol-2-yl)-6-chlorobenzene-1,3-diol] | active | 55.8 | 76 ± 2 | 4240 ± 205 | 135.14 | 105.26 | mixed type of inhibition | 322.58 | 163.93 | the same relationships as in the case of AChE | 48 ± 3.43 | 641 ± 30 | 3.896 | 3.602 | – | –
2 | COc1ccc2nc(-c3ccc(O)c(C)c3O)[nH]c2c1 [Compound 5, 4-(6-Methoxy-1H-benzimidazol-2-yl)-2-methylbenzene-1,3-diol] | active | 1.4 | 86 ± 21 | 117 ± 41 | – | 120.48 | mixed type of inhibition | 196.08 | – | the same relationships as in the case of AChE | 33.1 ± 2.07 | 627 ± 110 | 5.179 | 4.591 | 175.44 | 178.57
